Measurements reported in PubChem BioAssay (NCI).
Values joined by “and” are separate entries in the source; they are usually repeats but may differ in a detail not shown here. Equal entries are not always repeated.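 Growth conditions: 96-well plates. Treatment: test compound, 48 hours, 5 concentrations. Analysis: linear interpolation between bracketing concentrations; unreached endpoints set to highest concentration. GI50 marks 50% less growth. TGI denotes the concentration required for complete inhibition of growth.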

How the values were obtained:
Experiment in all cases: NCI-60 cell line screen, 48 h
SR leukemia = system: SR leukemia
SN12C renal = system: SN12C renal
A549 NSCLC = system: A549 NSCLC
OVCAR-3 ovarian = system: OVCAR-3 ovarian
BT-549 breast = system: BT-549 breast
MOLT-4 leukemia = system: MOLT-4 leukemia
MCF7 breast = system: MCF7 breast
T-47D breast = system: T-47D breast
HOP-92 NSCLC = system: HOP-92 NSCLC
UO-31 renal = system: UO-31 renal

Structure (SMILES) | GI50 (SR leukemia) | TGI (SR leukemia) [µM] | GI50 (SN12C renal) [µM] | TGI (SN12C renal) [µM] | GI50 (A549 NSCLC) [µM] | TGI (A549 NSCLC) [µM] | GI50 (OVCAR-3 ovarian) | TGI (OVCAR-3 ovarian) [µM] | GI50 (BT-549 breast) | TGI (BT-549 breast) | GI50 (MOLT-4 leukemia) | TGI (MOLT-4 leukemia) | GI50 (MCF7 breast) | TGI (MCF7 breast) | GI50 (T-47D breast) | TGI (T-47D breast) [µM] | GI50 (HOP-92 NSCLC) [µM] | TGI (HOP-92 NSCLC) | GI50 (UO-31 renal) | TGI (UO-31 renal)
COc1ccc(-c2[nH]c3ccccc3c2/C=C(\C#N)S(=O)(=O)c2ccccc2)cc1 | 0.344 µM | 4.9 | 1.34 | > 100 | 0.759 | > 35.5 | 0.241 µM | 0.673 | 1.63 µM | > 76 µM | 0.666 µM | 8.39 µM | 0.398 µM | > 51.6 µM | 0.53 µM | 6.15 | 1.43 | > 20.6 µM | 1.88 µM | 
COc1ccc(/C=N\Nc2nc(SCC(C)C)nc(-c3ccc(OC)cc3)c2C#N)cc1 | 8.69 µM | 96 | 2.1 | 20.4 | 0.524 | 16.2 | 6.71 µM | 21.1 | 15.7 µM | 52.5 µM | 12.9 µM | > 100 µM | 13.8 µM | > 100 µM | 1.36 µM | 10.7 | 2.39 | 14.1 µM | 1.5 µM | 3.73 µM
Fc1ccc2nc(-c3nc(-c4ccccc4)n4ccccc34)[nH]c2c1 | 4.45 µM | > 100 | 4.5 | 17.9 | 2.68 | 7.98 | 4.29 µM | 15.1 | 2.76 µM | 7.61 µM | 3.6 µM | > 100 µM | 1.37 µM | 5.59 µM | 1.06 µM | 4.76 | 1.73 | 6.42 µM | 1.75 µM | 5.15 µM
Nc1nc(-c2ccc(Cl)cc2)nc2c1sc(=S)n2-c1ccccc1 | 5.82 µM | > 100 | 6.34 | 48.1 | 3.67 | 25.4 | 2.75 µM | 7.64 | 6.5 µM | > 100 µM | > 100 µM | > 100 µM | 4.29 µM | > 100 µM | 2.13 µM | 5.54 | 2.37 | 6.25 µM | 1.84 µM | 4.19 µM
O=C(c1ccco1)c1c(C(F)(F)F)n([O-])c2cc(F)c(F)cc2[n+]1=O | 0.0237 µM | 0.39 | 0.307 | 1.01 | 1.32 | 3.12 | 0.193 µM | 1.35 | 0.163 µM | 0.389 µM | 0.0867 µM | 0.411 µM | 0.108 µM | 2.62 µM | 0.782 µM | 22.7 | 1.49 | 3.21 µM | 0.546 µM | 1.03 µM
NCc1ccc(-c2nc(-c3ccc(Cl)c(O)c3)c(-c3ccncc3)[nH]2)cc1 | > 25 µM | > 25 | > 25 | > 25 | > 25 | > 25 | > 25 µM | > 25 | > 25 µM | > 25 µM | > 25 µM | > 25 µM | > 25 µM | > 25 µM | > 25 µM | > 25 | 2.1 | 19.6 µM | 17.2 µM | > 25 µM
CC(=O)N(O)c1ccc(/C=C/c2ccccc2)cc1 | 0.244 µM | > 100 | 0.763 | 37.5 | 1.26 | 15.5 | 2.55 µM | 29.2 | 2.59 µM | 20.5 µM | 2.27 µM | > 100 µM | 0.548 µM | > 100 µM | 0.24 µM | > 41.8 | 1.14 | 3.65 µM | 0.759 µM | 2.9 µM
CC1(C)[C@H](O)[C@H](F)C[C@@]2(C)Oc3ccc(C(=O)Nc4ccc5c(c4)NC(=O)C54CCN(CCCCC#N)CC4)cc3C[C@H]12 | 0.0106 µM | 2.6 | 11.7 | 42.4 |  | 8.4 | 3.82 µM and 12 µM | 30.4 | 0.0186 µM | 6.31 µM and 8.37 µM | 0.00568 µM | 1.09 µM and 1.63 µM | 0.00995 µM | 9.63 µM and 8.28 µM | 3.76 µM and 2.49 µM | 26.1 | 0.00986 | 3.28 µM and 8.09 µM | 0.456 µM and 0.558 µM | 8.32 µM and 11.4 µM
N#Cc1c(NC(=O)c2ccccc2F)sc2c1CCCC2 | > 25 µM | > 25 | > 25 | > 25 | > 25 | > 25 | > 25 µM | > 25 | > 20.3 µM | > 25 µM | > 25 µM | > 25 µM | > 19.5 µM | > 25 µM | > 25 µM | > 25 | > 25 | > 25 µM | > 25 µM | > 25 µM
S=C(NCc1ccc2c(c1)OCO2)N1CCN(c2ncnc3c2oc2ccccc23)CC1 | 3.7 µM | > 100 | > 100 | > 100 | 7.24 | > 100 | 25.2 µM | > 100 | 26.9 µM | > 100 µM | 3.95 µM | > 100 µM | 4.83 µM | > 100 µM | 2.3 µM | > 100 | 14.3 | > 100 µM | > 21.7 µM | > 100 µM
O=c1[nH]c(=S)[nH]c(-c2ccccc2)c1Cc1c(O)ccc2ccccc12 |  | > 100 |  | > 100 |  | > 100 |  | > 100 |  | 90.7 µM |  | > 100 µM |  | > 100 µM |  | 58 |  | > 100 µM |  | 80.9 µM
COc1ccc(OC)c(Cc2cnc3nc(N)nc(N)c3c2C)c1 |  | 21.7 |  | 33.6 |  | 36.9 |  | 10.9 |  | 43.8 µM |  | 23.5 µM |  | 28.6 µM |  | 47.2 |  | 39.6 µM |  | 27.7 µM
O=C(c1cc(Cc2n[nH]c(=O)c3ccccc23)ccc1F)N1CCN(C(=O)C2CC2)CC1 | 7.78 µM and 14.1 µM | > 100 | > 100 | > 100 | > 100 | > 100 | 32.8 µM and > 77.2 µM | > 100 | 32.2 µM and 33.6 µM | > 100 µM | 46.7 µM and 22.4 µM | > 100 µM | 47.4 µM and 34.2 µM | > 100 µM | 31.5 µM | > 100 |  | > 100 µM | 71.7 µM and 40.7 µM | > 100 µM
c1ccc(C2CCCCC2)c(OCCCCCN2CCNCC2)c1 | 0.995 µM | 4.56 | 2.93 | 18.1 | 4.81 | 20.2 | 2.74 µM | 11.1 | 7.38 µM | 37.9 µM | 1.63 µM | 5.07 µM | 1.89 µM | 4.36 µM | 1.92 µM | 5.16 | 4.44 | 23 µM | 5.46 µM | 21.1 µM
Cc1cc(O)c2c3c(ccc2c1)C(=O)c1c(O)cccc1C3=O |  | 26.5 |  | > 100 |  | > 100 |  | 3.45 |  | > 100 µM |  | > 39.1 µM |  | > 100 µM |  | > 100 |  | > 100 µM |  | > 100 µM
COc1cc(C(=O)/C=C/c2c(C(F)(F)F)nc3ccccn23)cc(OC)c1OC | 1.98 µM | > 100 | 2.09 | 6.49 | 4.04 | > 100 | 1.83 µM | 3.61 | 1.64 µM | 3.95 µM | 3.73 µM | > 100 µM | 1.44 µM | 6.41 µM | 3.52 µM | 15 | 2.65 | 9.94 µM | 1.49 µM | 3.11 µM
COCCOCCOCCOCCOC(=O)OC[n+]1ccc(NC(=NCCCCCCOc2ccc(Cl)cc2)NC#N)cc1 | 0.0905 µM | > 45.6 | < 0.01 | 15.7 | 2.22 | 19.2 | 4.69 µM | 19.3 | 5.71 µM | 20.5 µM | 1.95 µM | 19.5 µM | 0.873 µM | 17.4 µM | 0.112 µM | 17.5 | 1.7 | 16.3 µM | 11.3 µM | 24.1 µM
N#C/C(=C\c1cc2ccc(N3CCC3)cc2oc1=O)C(=O)N(CC(=O)O)CC(=O)O | > 100 µM | > 100 | > 100 | > 100 | > 100 | > 100 | > 100 µM | > 100 | > 100 µM | > 100 µM | > 100 µM | > 100 µM | > 100 µM | > 100 µM | > 100 µM | > 100 | > 100 | > 100 µM | > 100 µM | > 100 µM
